Laboratory results reported in publication PMC4621751 (The Journal of General Physiology, 2015).

Assays:
[1] = target: T1, human Elk1 (HsElk1, Kv12.1, KCNH8) (Homo sapiens, UniProt Q96L42); assay: inside-out patch clamp, Hill fit of activation time constant; assay type: cell-based
T1 sequence (Q96L42 1-1107): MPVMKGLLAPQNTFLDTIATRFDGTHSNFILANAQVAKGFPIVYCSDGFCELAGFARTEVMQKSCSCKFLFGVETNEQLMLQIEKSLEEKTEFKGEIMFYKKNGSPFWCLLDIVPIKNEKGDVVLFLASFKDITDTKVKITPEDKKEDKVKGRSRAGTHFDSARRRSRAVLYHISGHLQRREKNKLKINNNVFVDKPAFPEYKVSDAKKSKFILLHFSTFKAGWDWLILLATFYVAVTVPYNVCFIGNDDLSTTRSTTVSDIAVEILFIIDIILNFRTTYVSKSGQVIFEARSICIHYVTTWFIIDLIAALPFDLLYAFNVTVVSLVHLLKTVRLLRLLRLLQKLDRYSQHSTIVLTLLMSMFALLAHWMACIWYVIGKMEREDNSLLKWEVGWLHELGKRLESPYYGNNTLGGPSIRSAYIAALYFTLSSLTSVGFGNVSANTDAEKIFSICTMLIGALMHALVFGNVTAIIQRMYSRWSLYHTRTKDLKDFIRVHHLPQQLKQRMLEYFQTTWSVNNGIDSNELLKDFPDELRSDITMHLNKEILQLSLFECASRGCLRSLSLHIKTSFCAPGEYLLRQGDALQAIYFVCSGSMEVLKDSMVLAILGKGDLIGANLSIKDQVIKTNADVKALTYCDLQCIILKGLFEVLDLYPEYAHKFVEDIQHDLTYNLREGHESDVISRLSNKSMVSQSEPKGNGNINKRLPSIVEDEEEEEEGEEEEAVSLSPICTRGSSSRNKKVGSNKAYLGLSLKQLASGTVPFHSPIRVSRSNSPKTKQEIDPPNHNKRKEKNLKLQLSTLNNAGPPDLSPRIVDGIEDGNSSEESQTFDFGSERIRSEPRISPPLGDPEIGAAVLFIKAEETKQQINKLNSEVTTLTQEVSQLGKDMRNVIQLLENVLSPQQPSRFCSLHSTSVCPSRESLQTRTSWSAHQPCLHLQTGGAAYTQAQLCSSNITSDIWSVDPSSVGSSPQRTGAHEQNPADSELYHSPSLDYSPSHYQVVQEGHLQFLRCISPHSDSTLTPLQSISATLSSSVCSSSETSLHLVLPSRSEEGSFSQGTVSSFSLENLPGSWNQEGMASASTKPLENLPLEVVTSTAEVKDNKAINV

[2] = target: T1, human Elk1 (HsElk1, Kv12.1, KCNH8); assay: inside-out patch clamp, activation time constant; assay type: biochemical; conditions: -20 mV, intracellular application, excised patch, pH 7.2

Row | SMILES | EC50 [1] | fold change of τact at 10 μM [2]
1 | CCCCCCCC(=O)OC[C@H](COP(=O)(O)O[C@@H]1[C@H](O)[C@H](O)[C@@H](OP(=O)(O)O)[C@H](OP(=O)(O)O)[C@H]1O)OC(=O)CCCCCCC [diC8-PIP2] | 12.7 ± 2.2 µM | –
2 | CCCCCCCC(=O)OC[C@H](COP(=O)(O)O[C@H]1[C@H](O)[C@@H](OP(=O)(O)O)[C@H](OP(=O)(O)O)[C@@H](OP(=O)(O)O)[C@H]1O)OC(=O)CCCCCCC [diC8-PIP3] | – | PIP3 slowed activation significantly more than PIP2
